Laboratory results as given in publication PMC10894229, “Novel antimicrobial peptides against Cutibacterium acnes designed by deep learning” (Scientific Reports, 2024).
Where two headings read alike, the source gives them in different places.

Tested on: C. acnes (BNCC 336649)
Conditions: for Concentration with antimicrobial activity >50%: C. acnes; for Concentration with antimicrobial activity >50% / Category of in vitro test antimicrobial activity against C. acnes: supplementary Table 5; for Antimicrobial activity > 50% against C. acnes: broth microdilution, 48 h, OD 630 nm
Method: The strain of C. acnes (BNCC 336649) was cultured in Wilkins-Chalgren Anaerobe Broth (QingDao RiShui Bio-technologies, 11071) at 37 °C under an anaerobic atmosphere performed by a Labiophy HL-B automatic hypoxic workstation (Dalian, Liaoning Province, Labiophy HL-B), inflated with a gas mix of 15% carbon dioxide, 83% nitrogen, and 2% hydrogen.
Logarithmic phase growth bacteria were used for antimicrobial testing.
To determine the MIC values, the broth microdilution method was used. […] Briefly, peptide samples were prepared as a stock solution in water and then diluted. 180 μL of the bacterial suspension (10^7 CFU/mL) and 20 μL of the tested sample were added together into 96-Well Deep Well Plates and incubated 24 h for E. coli and S. aureus or 48 h for C. acnes and C. albicans. For each test, two columns of the plate were kept for sterility control (broth only) and growth control (broth with bacterial inoculums, no antibiotics). The optical density of cultures was measured at 630 nm by a microplate reader (SYNERGY-H1, BioTek, USA) to estimate bacterial growth. All experiments were conducted in triplicate. We used ciprofloxacin (CPFX) as the antibiotic control for antimicrobial testing.

Row | Sequence | Concentration with antimicrobial activity >50% | Antimicrobial activity > 50% against C. acnes (at 25 µg/mL) | Antimicrobial activity > 50% against C. acnes (at 50 µg/mL) | Antimicrobial activity > 50% against C. acnes (at 100 µg/mL) | Category of in vitro test antimicrobial activity against C. acnes
1 | KIAKRLAKKILNAI [AMP-10] | 12.5 µg/mL | Inhibit (A peptide was deemed to have antimicrobial activity if C. acnes growth was inhibited by more than 50% at a given concentration) | Inhibit (A peptide was deemed to have antimicrobial activity if C. acnes growth was inhibited by more than 50% at a given concentration) | Inhibit (A peptide was deemed to have antimicrobial activity if C. acnes growth was inhibited by more than 50% at a given concentration) | Strong AMP
2 | KRIGSILGRWLHLAK [AMP-2] | 25 µg/mL | Inhibit (A peptide was deemed to have antimicrobial activity if C. acnes growth was inhibited by more than 50% at a given concentration) | Inhibit (A peptide was deemed to have antimicrobial activity if C. acnes growth was inhibited by more than 50% at a given concentration) | Inhibit (A peptide was deemed to have antimicrobial activity if C. acnes growth was inhibited by more than 50% at a given concentration) | Medium AMP
3 | WFKAIPQAISALKKI [AMP-26] | 100 µg/mL | No (A peptide was deemed to have antimicrobial activity if C. acnes growth was inhibited by more than 50% at a given concentration) | No (A peptide was deemed to have antimicrobial activity if C. acnes growth was inhibited by more than 50% at a given concentration) | Inhibit (A peptide was deemed to have antimicrobial activity if C. acnes growth was inhibited by more than 50% at a given concentration) | Weak AMP
4 | WLSKTAKKLWNVFKS [AMP-15] | 25 µg/mL | Inhibit (A peptide was deemed to have antimicrobial activity if C. acnes growth was inhibited by more than 50% at a given concentration) | Inhibit (A peptide was deemed to have antimicrobial activity if C. acnes growth was inhibited by more than 50% at a given concentration) | Inhibit (A peptide was deemed to have antimicrobial activity if C. acnes growth was inhibited by more than 50% at a given concentration) | Medium AMP
5 | AKKALKAAAKIIKWL [AMP-19] | 25 µg/mL | Inhibit (A peptide was deemed to have antimicrobial activity if C. acnes growth was inhibited by more than 50% at a given concentration) | Inhibit (A peptide was deemed to have antimicrobial activity if C. acnes growth was inhibited by more than 50% at a given concentration) | Inhibit (A peptide was deemed to have antimicrobial activity if C. acnes growth was inhibited by more than 50% at a given concentration) | Medium AMP
6 | KIFWRVAKSLFKSY [AMP-30] | 100 µg/mL | No (A peptide was deemed to have antimicrobial activity if C. acnes growth was inhibited by more than 50% at a given concentration) | No (A peptide was deemed to have antimicrobial activity if C. acnes growth was inhibited by more than 50% at a given concentration) | Inhibit (A peptide was deemed to have antimicrobial activity if C. acnes growth was inhibited by more than 50% at a given concentration) | Weak AMP
7 | LLSLIRRTVARLKKA [AMP-18] | 25 µg/mL | Inhibit (A peptide was deemed to have antimicrobial activity if C. acnes growth was inhibited by more than 50% at a given concentration) | Inhibit (A peptide was deemed to have antimicrobial activity if C. acnes growth was inhibited by more than 50% at a given concentration) | Inhibit (A peptide was deemed to have antimicrobial activity if C. acnes growth was inhibited by more than 50% at a given concentration) | Medium AMP
8 | GFKRIVHRLTKWLA [AMP-11] | 12.5 µg/mL | Inhibit (A peptide was deemed to have antimicrobial activity if C. acnes growth was inhibited by more than 50% at a given concentration) | Inhibit (A peptide was deemed to have antimicrobial activity if C. acnes growth was inhibited by more than 50% at a given concentration) | Inhibit (A peptide was deemed to have antimicrobial activity if C. acnes growth was inhibited by more than 50% at a given concentration) | Strong AMP
9 | GIGALVKFLPKLFK [AMP-41] | 25 µg/mL | Inhibit (A peptide was deemed to have antimicrobial activity if C. acnes growth was inhibited by more than 50% at a given concentration) | Inhibit (A peptide was deemed to have antimicrobial activity if C. acnes growth was inhibited by more than 50% at a given concentration) | Inhibit (A peptide was deemed to have antimicrobial activity if C. acnes growth was inhibited by more than 50% at a given concentration) | Medium AMP
10 | FLGQLKNFFKKLAS [AMP-7] | – | No (A peptide was deemed to have antimicrobial activity if C. acnes growth was inhibited by more than 50% at a given concentration) | Inhibit (A peptide was deemed to have antimicrobial activity if C. acnes growth was inhibited by more than 50% at a given concentration) | Inhibit (A peptide was deemed to have antimicrobial activity if C. acnes growth was inhibited by more than 50% at a given concentration) | Medium AMP
11 | GLTLLKKFLHAAKKF [AMP-23] | 25 µg/mL | Inhibit (A peptide was deemed to have antimicrobial activity if C. acnes growth was inhibited by more than 50% at a given concentration) | Inhibit (A peptide was deemed to have antimicrobial activity if C. acnes growth was inhibited by more than 50% at a given concentration) | Inhibit (A peptide was deemed to have antimicrobial activity if C. acnes growth was inhibited by more than 50% at a given concentration) | Medium AMP
12 | RISSLLKRLAIKIK [AMP-16] | 25 µg/mL | Inhibit (A peptide was deemed to have antimicrobial activity if C. acnes growth was inhibited by more than 50% at a given concentration) | Inhibit (A peptide was deemed to have antimicrobial activity if C. acnes growth was inhibited by more than 50% at a given concentration) | Inhibit (A peptide was deemed to have antimicrobial activity if C. acnes growth was inhibited by more than 50% at a given concentration) | Medium AMP
13 | KLVKRVLKKLRKLF [AMP-8] | – | Inhibit (A peptide was deemed to have antimicrobial activity if C. acnes growth was inhibited by more than 50% at a given concentration) | Inhibit (A peptide was deemed to have antimicrobial activity if C. acnes growth was inhibited by more than 50% at a given concentration) | Inhibit (A peptide was deemed to have antimicrobial activity if C. acnes growth was inhibited by more than 50% at a given concentration) | Strong AMP
14 | DALRALHHLLKRAL [AMP-42] | no | No (A peptide was deemed to have antimicrobial activity if C. acnes growth was inhibited by more than 50% at a given concentration) | No (A peptide was deemed to have antimicrobial activity if C. acnes growth was inhibited by more than 50% at a given concentration) | No (A peptide was deemed to have antimicrobial activity if C. acnes growth was inhibited by more than 50% at a given concentration) | No AMP
15 | FKRLQKLLFTLKQK [AMP-40] | no | No (A peptide was deemed to have antimicrobial activity if C. acnes growth was inhibited by more than 50% at a given concentration) | No (A peptide was deemed to have antimicrobial activity if C. acnes growth was inhibited by more than 50% at a given concentration) | No (A peptide was deemed to have antimicrobial activity if C. acnes growth was inhibited by more than 50% at a given concentration) | No AMP
